{
  "source": "patent US6590140B1",
  "about": "“Metal-regulated transporters and uses therefor” (Trustees of Dartmouth College, priority 1996, dated 2003)",
  "key": {"ZIP2": {"molecular_target": "T1, ZIP2 (Arabidopsis thaliana, UniProt Q9LTH9)", "T1 construct": "expressed in transfected cells; host or cells: S. cerevisiae ZHY3 (zrt1::LEU2 zrt2::HIS3) with an Arabidopsis cDNA clone in pFL61", "T1 sequence (Q9LTH9 30-353)": "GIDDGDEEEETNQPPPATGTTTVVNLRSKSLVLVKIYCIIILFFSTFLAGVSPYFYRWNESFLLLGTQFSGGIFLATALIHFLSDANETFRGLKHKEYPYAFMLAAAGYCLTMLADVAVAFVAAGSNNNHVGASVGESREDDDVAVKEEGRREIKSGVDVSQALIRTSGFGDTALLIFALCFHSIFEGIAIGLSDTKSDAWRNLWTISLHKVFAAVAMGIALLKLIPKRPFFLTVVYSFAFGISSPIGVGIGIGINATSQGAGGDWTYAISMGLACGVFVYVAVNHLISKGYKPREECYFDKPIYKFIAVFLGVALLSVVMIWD", "test": "Zn uptake by ZHY3 containing ZIP2", "assay_type": "cell-based", "settings": "ZHY3 cells containing ZIP2, 5 minute time course using 10 mM Zn", "procedure": "Zinc uptake assays were performed as described previously for iron uptake (Eide et al. (1992) J. Biol. Chem. 267:20774-20781) except that ^65ZnCl2 (Amersham) and LZM-EDTA were substituted for ^59FeCI3 and LIM-EDTA, respectively. Cells were incubated for 5 minutes in LZM-EDTA plus the indicated concentration of ^65Zn, collected on glass fiber filters (Schleicher and Schuell), washed with 10 ml ice-cold SSW (1 mM EDTA, 20 mM trisodium citrate, 1 mM KH2PO4, 1 mM CaCl2, 5 mM MgSO4, 1 mM NaCl pH 4.2), and cell-associated radioactivity was measured by liquid scintillation counting. […] Michaelis-Menten kinetic values were determined using […] software (Intellikinetics, Princeton, N.J.). […] The statistical significance of the differences of values relative to controls was determined with one-way analysis of variance (ANOVA) followed by a Dunnett multiple comparison test. β-galactosidase activity was assayed in cells harvested at an OD600 of 0.5-2.0 as described by Guarente (Guarente, L. (1983) Methods Enzymol. 101:181-191) and activity is expressed as the change in absorbance at 420 nm×1000 divided by (min×ml of culture used×OD600 of the culture). Cell-associated zinc was measured in parallel cultures supplemented with tracer amounts of ^65Zn (10 μM) and nonradioactive zinc to the indicated final concentration. […]"}, "zrt1zrt2 (ZHY3) cells": {"test_system": "zrt1zrt2 (ZHY3) cells", "test": "Zinc-limited growth, zrt1zrt2 mutant yeast", "assay_type": "cell-based, Saccharomyces cerevisiae", "procedure": "Strains used were DY1457 (MATα ade6 can1 his3 leu2 trp1 ura3), ZHY1 (AMTα ade6 can1 his3 leu2 trp1 ura3 zrt1::LEU2), ZHY2 (MATα ade6 can1 his3 leu2 trp1 ura3 zrt2::HIS3), and ZHY3 (MATα ade6 can1 his3 leu2 trp1 ura3 zrt1::LEU2 zrt2::HIS3). Yeast were grown in YP or SD media (Sherman et al. (1986) Methods in Yeast Genetics, Cold Spring Harbor Laboratory, Cold Spring Harbor, N.Y.) supplemented with necessary auxotrophic requirements and either 2% glucose or 2% galactose. Zinc-limiting YP and SD agar plates contained either bathophenanthroline disulfonate (BPS, 200 μM) or EDTA (1 mM), respectively. A liquid zinc-limiting medium (low zinc medium, LZM) was prepared in the same manner as low iron medium (LIM) (Eide and Guarente (1992) J. Gen. Microbiol. 138:347-354) except that the […]. LZM is similar in composition to SD medium with two modifications essential to controlling zinc availability. First, 1 mM EDTA is added to provide buffering for the concentration of free metal ions. Second, the medium is pH-buffered at 4.2 with 20 mM citrate to prevent pH changes that could alter the metal binding ability of EDTA. LZM was also prepared without EDTA ([…]) which is less zinc-limiting because the predominant chelator in this medium, citrate, binds zinc with less affinity than does EDTA. The concentrations of free (i.e. unchelated) zinc were calculated using MAXCHELATOR software (Chris Patton, Stanford University). Cell number in liquid cultures was determined by measuring the absorbance of cell suspensions at 600 nm (OD600) and converting to cell number with a standard curve.\nTo further assess the role of the low affinity system as a source of zinc, growth of wild type and zrt2 cells in a zinc-limiting medium, LZM, supplemented with increasing amounts of zinc was examined. The same strains as in FIG. 15 were grown for six hours in SD glucose medium, harvested, washed in LZM, and reinoculated into either LZM (FIG. 15A) or LZM-EDTA (FIG. 15B) supplemented with the indicated concentrations of ZnCl2 ([Zn]T). These cultures were then grown for 16 hours at 30° C. prior to cell number determination. Number of cell divisions are plotted against [Zn]T and the calculated free zinc concentration ([Zn]F). The metal ion buffering capacity of EDTA in LZM is exceeded at concentrations above 100 μM total zinc whereas the metal buffering capacity of citrate in LZM-EDTA maintains a linear relationship between [Zn]T and [Zn]F to concentrations greater than 1 mM. It has been shown previously that the zrt1 mutant requires greater than 500 μM total zinc ([Zn]T) in LZM to undergo its maximum number of cell divisions and this value corresponds to a calculated free (i.e. unchelated) zinc concentration ([Zn]F) of approximately 500 μM. […]"}},
  "data": [
    {"smiles": "[Zn+2]", "note": "[zinc]", "values": [
      {"measurement": "Zn uptake", "setting": "ZIP2", "value": "no Zn uptake"},
      {"measurement": "calculated free zinc [Zn]F for maximum number of divisions", "setting": "zrt1zrt2 (ZHY3) cells; zrt1zrt2, LZM-EDTA, 16 hours", "value": "~6", "unit": "µM"},
      {"measurement": "total zinc for maximum number of divisions", "setting": "zrt1zrt2 (ZHY3) cells; zrt1zrt2, LZM-EDTA, 16 hours", "value": 500, "unit": "µM"},
      {"measurement": "zinc required in the medium relative to the wild type strain", "setting": "zrt1zrt2 (ZHY3) cells; zrt1zrt2 vs wild type", "value": "greater than 10^5 fold"},
      {"measurement": "zinc required for growth relative to the zrt1 strain", "setting": "zrt1zrt2 (ZHY3) cells; zrt1zrt2 vs zrt1", "value": "at least 1000 fold"}
    ]}
  ]
}
